Assay results from PubChem BioAssay AID602296 (Broad Institute, 2012).
Results filed as inconclusive are left out. Activity calls are given as the source filed them.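 How the source made its calls: active means fitted activation curve crossing 40% at a concentration no higher than the sample's top valid tested dose; inconclusive means flat fitted curve at 30% to 70% activation, or poor curve fit; inactive means signal decrease, flat curve within 30%, or the rest.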

Test system: NIH3T3-HGL HSF-1 response element luciferase, 48 h
Experiment: HSF-1 reporter activators over prolonged exposure, confirmation, cell-based, mouse, luciferase, cherry-pick, dose (AID 602296);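 further: test compounds applied by themselves with no MG132 co-treatment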

Structure (SMILES)	AC40
COC(=O)c1ccc(CSc2ncnc3c2oc2ccccc23)o1	> 26 µM (inactive)
COc1ccc(/C=C/C(=O)NCCCc2ccccc2)cc1	> 26 µM (inactive)
CN(Cc1ccccc1)C(=O)CCC1CCN(C(=O)CC2=CCCCC2)CC1	> 26 µM (inactive)
COc1cc2c(cc1NC(=O)COC(=O)[C@@H](NS(=O)(=O)c1ccccc1)C(C)C)oc1ccccc12	> 26 µM (inactive)
CCOc1cccc(/C=C/c2ccc3cccc(O)c3n2)c1OC	> 26 µM (inactive)
Cc1nc(/C(N)=N/OC(=O)Cc2ccccc2)no1	22.2 µM
CCOC(=O)c1c(C)n(-c2ccc(C)cc2)c2c(CC(C)=O)c(Br)c(OC)c(O)c12	> 26 µM (inactive)
O=C(O)CSc1c(-c2ccccc2)[nH]c2ccccc12	> 26 µM (inactive)
C=CCNC(=S)N/N=C/c1ccc(-c2ccc(Br)cc2)o1	22 µM
COCCCNc1nc2nonc2nc1N1CCN(Cc2cccc(C)c2)CC1	> 26 µM (inactive)
Cc1ccc(N2C(=O)SC(N(CC(=O)O)c3ccc(C)cc3)C2=O)cc1 (configuration not stated)	9.53 µM
CCN(C(=O)c1cc2c(=O)[nH]c3ccc(C)cc3c2s1)c1ccccc1F	> 26 µM (inactive)
COc1cccc(NC(=S)NC(=O)c2c(Cl)c(C)nn2C)c1	2.51 µM
Cc1ccc(CN(C)C(=O)C2CCC(=O)N(CCc3ccccc3)C2)o1 (configuration not stated)	9.82 µM
Cn1c2ccc(F)cc2c2ncn(CCN3CCOCC3)c(=O)c21	> 26 µM (inactive)
COc1cccc(C2C(C(N)=O)=C(C)Nc3nc(-c4cccc(Cl)c4)nn32)c1 (configuration not stated)	> 26 µM (inactive)
CC[C@@]1(O)C(=O)OCc2c1cc1n(c2=O)Cc2cc3c(N)cccc3nc2-1	15.9 µM
CCOC(=O)c1c(-c2ccc(C)o2)csc1NC(=O)CSc1nncs1	13.6 µM
c1ccc(SCCOCCN2CCOCC2)cc1	> 26 µM (inactive)
C/C(=N\NC(=O)c1ccoc1C)c1cccc2ccccc12	10.2 µM
CC(C)NC(=O)CN(C(=O)CCC(=O)Nc1nccs1)c1ccc2c(c1)OCO2	> 26 µM (inactive)
COc1cccc(Sc2ccccc2/C=N/NC(N)=O)c1	> 26 µM (inactive)

Structure (SMILES)	AC40
CCc1nc(SCC(=O)c2ccc(Cl)s2)c2oc3ccccc3c2n1	18.6 µM
O=C(NCc1cccc(F)c1)c1noc2c1CCCC2	6.03 µM
COc1cc(CC(=O)N(c2ccccc2)c2nc(C)cs2)cc(OC)c1OC	> 26 µM (inactive)
ON=C1c2ccccc2-c2ccccc21	15.8 µM
CCNC(=S)N/N=C/c1ccc(-c2ccccc2)o1	> 26 µM (inactive)
FC(F)(F)c1cccc(NC(=S)NCc2ccccn2)c1	7.35 µM
Cc1ccc(O)c(NC(=O)c2onc(C)c2Cl)c1	> 26 µM (inactive)
COc1ccc2nc(SC)c(C#N)cc2c1	> 26 µM (inactive)
Cc1ccc(-n2c(SCC(=O)Nc3cc(S(=O)(=O)N4CCOCC4)ccc3Cl)nc3ccccc3c2=O)cc1	16 µM
O=C(CCC1CCCN(C(=O)c2ccc3cc[nH]c3c2)C1)NCc1ccc(F)c(F)c1 (configuration not stated)	14.8 µM
CCOC(=O)C1=NN(C(=O)c2ccccc2)C(O)(c2ccc(C)cc2)C1 (configuration not stated)	8.91 µM
O=C1/C(=C\c2ccc(Br)o2)Cc2ccccc21	10.7 µM
Cc1cccc(NCc2nc3ccccc3n2C)c1	1.61 µM
O=C(CN1C(=O)/C(=C\c2cccc(Cl)c2)Sc2ccccc21)NCCCN1CCOCC1	> 12 µM (inactive)
Cc1cc2c(cc1C)-c1nnnn1C(C)(C)C2	> 26 µM (inactive)
COC(=O)c1ccc(OC(=O)CCN2C(=O)C3CCCCC3C2=O)cc1 (configuration not stated)	> 26 µM (inactive)
COC(=O)c1ccc(N(CC(=O)NC2CCCCC2)C(=O)CNC(=O)c2ccco2)cc1	> 26 µM (inactive)
C=CCN(C(=O)CCc1ccccc1OC)c1nc(-c2ccc(S(C)(=O)=O)cc2)cs1	> 26 µM (inactive)
Nn1cnnc1N/N=C/c1cc([N+](=O)[O-])c(Cl)cc1Cl	> 26 µM (inactive)
CC(=O)Nc1cccc(-n2nnc(SCC(=O)Nc3ccc(F)c(Cl)c3)n2)c1	> 26 µM (inactive)
CCC(C)n1c(SCC(=O)NC(=O)Nc2ccc3c(c2)OCCO3)nc2ccccc2c1=O (configuration not stated)	> 26 µM (inactive)
Cc1ccc(C(=O)n2cnnc2N)cc1	> 26 µM (inactive)

Structure (SMILES)	AC40
Nc1ccc(Sc2cnn(-c3ccccc3)c(=O)c2Cl)cc1	8.39 µM
CN(CCC1CCCCO1)C(=O)CCc1nnc(CCCCc2ccccc2)o1 (configuration not stated)	5.66 µM
Cn1nnc2c[n+](CC(=O)c3ccc4ccccc4c3)cc(Br)c21	> 26 µM (inactive)
O=C(CN1C(=O)NC2(CCCC2)C1=O)NCCN1C(=O)S/C(=C\c2ccccc2F)C1=O	> 26 µM (inactive)
C/C(=N\NC(=O)c1cccc(N/N=C(\C)c2cc(O)ccc2O)c1)c1cc(O)ccc1O	> 12 µM (inactive)
CCC(C)(C)c1ccc(OC(=O)c2cccnc2Cl)cc1	> 26 µM (inactive)
COC(=O)CC1C(=O)NCCN1C(=O)c1ccc(S(=O)(=O)N2CCOCC2)cc1 (configuration not stated)	> 26 µM (inactive)
O=C(CN1CCOCC1)N(c1ccccc1)c1ccc2ccccc2c1	14.6 µM
CN(C)CCCn1c(N)c(C#N)c2nc(C#N)c(C#N)nc21	> 12 µM (inactive)
CCc1cc(C(c2ccccc2OC)N2CCOCC2)c(NC(=O)c2ccccc2)s1 (configuration not stated)	> 26 µM (inactive)
O=C(Nc1ccc(Br)cn1)c1ccc([N+](=O)[O-])o1	> 26 µM (inactive)
CC1(C)CC(=O)C(=Cc2cn(-c3ccccc3)nc2-c2ccccc2)C(=O)C1	14 µM
COCCCNCCOc1ccc(C)cc1[N+](=O)[O-]	> 26 µM (inactive)
COc1ccc(CCNc2oc(-c3ccccc3OC)nc2C#N)cc1	> 26 µM (inactive)
O=C(N/N=C/c1ccncc1)c1cc2ccccc2cc1O	25.2 µM
CC(=O)c1cccc(N(CC(=O)Nc2ccc(F)cc2F)S(C)(=O)=O)c1	5.46 µM
CC(C)CCN=CC1=C(O)CC(c2ccccc2)CC1=O (configuration not stated)	> 26 µM (inactive)
CC1(C)c2cc(O)ccc2OC1N1CCOCC1 (configuration not stated)	> 26 µM (inactive)
COc1ccc(OC)c(-n2c(=O)c3ccccc3c3ccccc3c2=O)c1	12.4 µM
COc1cc2c(cc1OC)C(CCc1ccccc1)=NCC2	> 26 µM (inactive)
Cc1ccc2cccnc2c1NC(=S)NC(=O)c1ccccc1	> 26 µM (inactive)
COc1cc2nc(CSc3nc(-c4ccc(F)cc4)cs3)[nH]c(=O)c2cc1OC	> 26 µM (inactive)

Structure (SMILES)	AC40
CCOC(=O)c1c(C)c(C(=O)Nc2ccc3c(c2)OCO3)c(C)n1C	24.1 µM
COc1cccc(CN2CC(C(=O)NCc3ccc(C)o3)CCC2=O)c1 (configuration not stated)	> 26 µM (inactive)
N#Cc1ccccc1COC(=O)c1cc(=O)c2ccccc2o1	26 µM
O=C1/C(=C/c2ccc([N+](=O)[O-])cc2)Oc2cc(O)ccc21	> 26 µM (inactive)
Cc1ccc(C(=O)OCC(=O)c2ccc(Cl)s2)s1	15.1 µM
Cc1ccccc1-n1nnc2c(=O)oc3ccccc3c21	> 26 µM (inactive)
CC(C)=NN1C(=O)c2ccccc2NC1(C)C	> 26 µM (inactive)
CC1=C(Sc2nc3ccccc3[nH]2)C(=O)NC(C)(C)C1	> 26 µM (inactive)
Cc1ccc(/C=C2\Oc3cc(OC(=O)N4CCOCC4)ccc3C2=O)cc1	> 26 µM (inactive)
CC1CCN(c2ccc(C=O)o2)CC1	> 26 µM (inactive)
COc1ccc(C2CC(=O)c3cnc(N4CCc5ccccc54)nc3C2)cc1OC (configuration not stated)	> 26 µM (inactive)
Cc1nonc1OCCNCCNc1ccc([N+](=O)[O-])cc1Cl	> 26 µM (inactive)
COc1cccc(CNc2ccc(Br)cn2)c1O	12.2 µM
Cc1ccc(O)c(CNc2nccs2)c1	24.5 µM
O=C(c1ccccc1Br)N1CCN(c2ccccc2)CC1	> 26 µM (inactive)
CC1=Nc2cc(C(=O)O)ccc2Sc2c(C)ccc(C)c21	> 26 µM (inactive)
CCN(CC(=O)Nc1ccc(NC(C)=O)cc1)Cc1c(O)ccc2cc(Br)ccc12	25.2 µM
O=c1/c(=C/c2ccccc2)sc2nnc(-c3cccs3)n12	> 26 µM (inactive)
CC(C)(C)N(NS(=O)(=O)c1ccc(F)cc1)c1ccccc1	> 26 µM (inactive)
CCC(=O)N1CCN(c2ccc(NC(=O)COc3ccc(C)cc3C)cc2)CC1	> 26 µM (inactive)
NC(=O)CSC1=N/C(=C\c2ccco2)C(=O)N1c1ccc(OC(F)F)cc1	8.11 µM
Cc1c(Cl)ccc2c1NC(=O)C21NC(CCC(N)=O)[C@H]2C(=O)N(c3ccc(Cl)cc3)C(=O)[C@H]21 (some centres not stated)	> 12 µM (inactive)

Structure (SMILES)	AC40
CCOc1cc(/C=C2/SC(=S)N(CC3CCCO3)C2=O)ccc1O (configuration not stated)	> 26 µM (inactive)
Cc1ccnc(N2CCCC(C(=O)Nc3ccc(C)c(C)c3)C2)n1 (configuration not stated)	> 26 µM (inactive)
COC(=O)C1CCN(C(=O)COC(=O)c2ccc(OC)c(S(=O)(=O)N3CCCc4ccccc43)c2)CC1	9.15 µM
CCOC(=S)SCC(=O)Nc1nc(C)c(C)s1	12.4 µM
O=C(CSc1nnc(-c2ccc(F)cc2)c2ccccc12)Nc1ccccc1	18.7 µM
CC(/C=C/c1cccs1)=C\C(=O)O	> 26 µM (inactive)
Cc1cccc(NC(=O)CSc2nnc(-c3ccco3)c(-c3ccco3)n2)c1C	> 26 µM (inactive)
Cc1ccc(S(=O)(=O)N(CC(=O)NCc2ccco2)Cc2ccc(F)cc2)cc1	> 26 µM (inactive)
COC(=O)/C=C1/N/C(=N\c2nc(C)cc(C)n2)N(c2ccc(C)c(C)c2)C1=O	> 26 µM (inactive)
Cc1cccc(CN(C(=S)Nc2c(C)cccc2C)c2cccnc2)c1	24.7 µM
Cn1c(=O)oc2cc(S(=O)(=O)N3CCCCC3)ccc21	> 26 µM (inactive)
Cc1nn(C(C)C(=O)NCCCN2CCCCC2C)c(=O)c2c1sc1ccccc12 (configuration not stated)	> 26 µM (inactive)
O=C(CSc1nccn(-c2ccc(F)c(F)c2)c1=O)NC1CCCC1	> 26 µM (inactive)
O=c1[nH]c2c(s1)C=Nc1ccccc1N2	4.98 µM
Cc1ccccc1CC1(CO)CCCN(C(=O)c2ccccc2Cl)C1 (configuration not stated)	> 26 µM (inactive)
ClC(Cl)c1nnc(-c2ccccc2)c(-c2c[nH]c3ccccc23)n1	> 26 µM (inactive)
CCOC(=O)c1cc(C#N)c(SCc2ccc(C#N)cc2)nc1C	> 26 µM (inactive)
Cc1nc2ccc(Br)cc2c(=O)n1Cc1cccs1	> 26 µM (inactive)
CC(=O)c1ccc(NC(=S)N2C(C)CCCC2C)cc1 (configuration not stated)	20.8 µM
